Laboratory results as given in patent US8975417B2, “Pyrazolopyrrolidine derivatives and their use in the treatment of disease” (Novartis AG, priority 2013, dated 2015).
Like-named read-outs stand apart in the source and are kept apart here.

Assays:
His-Brd4(44-477) = His-Brd4(44-477) (Homo sapiens (Human), UniProt O60885); assay: TR-FRET in-vitro binding assay for BRD4; details: biochemical
Summary of the method: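 Assay buffer HEPES pH 7.5/NaCl/Tween20/BSA; protein solution 45 nM, peptide solution 60 nM acetyl-H4 (AcK5,8,12,16). Incubated 30 °C for 35 min; Eu-anti-His6 and SA-APC detection, TR-FRET read.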

K-562 cells = assay: Cell growth inhibition assay (CellTiter-Glo), K-562; format: cell-based, human
Summary of the method: (§1)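 CellTiter-Glo ATP luminescence after compound exposure at 37° C., 5% CO2; 3-fold serial dilutions from 10 μM, 0.1% DMSO vehicle. Readings background- and day 0-corrected, vehicle = 100%, medium = −100%. IC50 and total growth inhibition (TGI) from four-parameter fits.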

THP-1 cells = assay: Cell growth inhibition assay (CellTiter-Glo), THP-1; format: cell-based; details: Homo sapiens, read-out: THP-1 TGI
Summary of the method: as §1

[1] = Homo sapiens, K562, read-out: K-562 TGI

Structure (SMILES)	IC50 (His-Brd4(44-477)) [nM]	IC (total growth inhibition) (K-562 cells; [1]) [µM]	IC (total growth inhibition) (THP-1 cells) [µM]	IC (total growth inhibition) (K-562 cells; read-out: K-562 TGI) [µM]
Cc1nn(C2CC2)c2c1[C@@H](c1ccc(Cl)cc1)N(c1cc(C)c(=O)n(C)c1)C2=O [Example 49, (R)-4-(4-chlorophenyl)-1-cyclopropyl-5-(1,5-dimethyl-6-oxo-1,6-dihydropyridin-3-yl)-3-methyl-4,5-dihydropyrrolo[3,4-c]pyrazol-6(1H)-one]	17	> 10	0.0603	
Cc1nn(C(=O)N(C)C)c2c1[C@@H](c1ccc(Cl)cc1)N(c1cc(C)c3nnc(C)n3c1)C2=O [Example 149, (R)-4-(4-chlorophenyl)-5-(3,8-dimethyl-[1,2,4]triazolo[4,3-a]pyridin-6-yl)-N,N,3-trimethyl-6-oxo-5,6-dihydropyrrolo[3,4-c]pyrazole-1(4H)-carboxamide]	30	> 10	0.138	
Cc1nn(C2COC2)c2c1C(c1ccc(Cl)cc1)N(c1cc(C)c(=O)n(C)c1)C2=O (stereo not shown) [Example 135, 4-(4-chlorophenyl)-5-(1,5-dimethyl-6-oxo-1,6-dihydropyridin-3-yl)-3-methyl-1-(oxetan-3-yl)-4,5-dihydropyrrolo[3,4-c]pyrazol-6(1H)-one]	140	> 10	0.2	
Cc1cc(N2C(=O)c3c(cnn3C3CC3)C2c2ccc(Cl)cc2)cn(C)c1=O (stereo not shown) [Example 34, 4-(4-chlorophenyl)-1-cyclopropyl-5-(1,5-dimethyl-6-oxo-1,6-dihydropyridin-3-yl)-4,5-dihydropyrrolo[3,4-c]pyrazol-6(1H)-one]	110	> 10	0.321	
CC(=O)Nc1cc(N2C(=O)c3c(c(C)nn3C3CC3)C2c2ccc(Cl)cc2)nn2c(C)nnc12 (stereo not shown) [Example 126, N-(6-(4-(4-chlorophenyl)-1-cyclopropyl-3-methyl-6-oxopyrrolo[3,4-c]pyrazol-5-(1H,4H,6H)-yl)-3-methyl-[1,2,4]triazolo[4,3-b]pyridazin-8-yl)acetamide]	1100	> 10	1.15	
COc1ncccc1-n1nc(C)c2c1C(=O)N(c1cc(Cl)c(=O)n(C)c1)C2c1ccc(Cl)cc1 (stereo not shown) [Example 72, 5-(5-chloro-1-methyl-6-oxo-1,6-dihydropyridin-3-yl)-4-(4-chlorophenyl)-1-(2-methoxypyridin-3-yl)-3-methyl-4,5-dihydropyrrolo[3,4-c]pyrazol-6(1H)-one]	79	> 10	0.408	
Cc1nn(C2CC2)c2c1C(c1ccc(OC(F)(F)F)cc1)N(c1cc(C)c(=O)n(C)c1)C2=O (stereo not shown) [Example 95, 1-cyclopropyl-5-(1,5-dimethyl-6-oxo-1,6-dihydropyridin-3-yl)-3-methyl-4-(4-(trifluoromethoxy)phenyl)-4,5-dihydropyrrolo[3,4-c]pyrazol-6(1H)-one]	64	> 10	0.411	
Cc1nn(C2COC2)c2c1C(c1ccc(Cl)cc1)N(c1cc(C)c3nnc(C)n3c1)C2=O (stereo not shown) [Example 137, 4-(4-chlorophenyl)-5-(3,8-dimethyl-[1,2,4]triazolo[4,3-a]pyridin-6-yl)-3-methyl-1-(oxetan-3-yl)-4,5-dihydropyrrolo[3,4-c]pyrazol-6(1H)-one]	80	> 10	0.116	
CC(=O)N1CC(n2nc(C)c3c2C(=O)N(c2cc(C)c4nnc(C)n4c2)C3c2ccc(Cl)cc2)C1 (stereo not shown) [Example 154, 1-(1-acetylazetidin-3-yl)-4-(4-chlorophenyl)-5-(3,8-dimethyl-[1,2,4]triazolo[4,3-a]pyridin-6-yl)-3-methyl-4,5-dihydropyrrolo[3,4-c]pyrazol-6(1H)-one]	91	> 10	0.538	
Cc1cc(N2C(=O)c3nn(C4COC4)c(C)c3C2c2ccc(Cl)cc2)cn2c(C)nnc12 (stereo not shown) [Example 136, 4-(4-chlorophenyl)-5-(3,8-dimethyl-[1,2,4]triazolo[4,3-a]pyridin-6-yl)-3-methyl-2-(oxetan-3-yl)-4,5-dihydropyrrolo[3,4-c]pyrazol-6(2H)-one]	110	> 10	0.186	
Cc1nn(C2CN(C)C2)c2c1C(c1ccc(Cl)cc1)N(c1cc(C)c3nnc(C)n3c1)C2=O (stereo not shown) [Example 157, 4-(4-chlorophenyl)-5-(3,8-dimethyl-[1,2,4]triazolo[4,3-a]pyridin-6-yl)-3-methyl-1-(1-methylazetidin-3-yl)-4,5-dihydropyrrolo[3,4-c]pyrazol-6(1H)-one]	77	> 10	0.312	
CCc1c2c(nn1C(=O)N(C)C)C(=O)N(c1cc(C)c(=O)n(C)c1)C2c1ccc(Cl)cc1 (stereo not shown) [Example 148, 4-(4-chlorophenyl)-5-(1,5-dimethyl-6-oxo-1,6-dihydropyridin-3-yl)-3-ethyl-N,N-dimethyl-6-oxo-5,6-dihydropyrrolo[3,4-c]pyrazole-2(4H)-carboxamide]	270	> 10	0.372	
CCc1nn(C2CC2)c2c1[C@H](c1ccc(Cl)cc1)N(c1cc(C)c3nnc(C)n3c1)C2=O [Example 106, (S)-4-(4-chlorophenyl)-1-cyclopropyl-5-(3,8-dimethyl-[1,2,4]triazolo[4,3-a]pyridin-6-yl)-3-ethyl-4,5-dihydropyrrolo[3,4-c]pyrazol-6(1H)-one]	2200	> 10	4.68	
COc1ncccc1-n1nc(C)c2c1C(=O)N(c1cc(C)c3nnc(C)n3n1)C2c1ccc(Cl)cc1 (stereo not shown) [Example 111, 4-(4-chlorophenyl)-5-(3,8-dimethyl-[1,2,4]triazolo[4,3-b]pyridazin-6-yl)-1-(2-methoxypyridin-3-yl)-3-methyl-4,5-dihydropyrrolo[3,4-c]pyrazol-6(1H)-one]	17	> 10	0.0484	
Cc1nn(-c2ccnn2C)c2c1C(c1ccc(Cl)cc1)N(c1cc(C)c3nnc(C)n3c1)C2=O (stereo not shown) [Example 90, 4-(4-chlorophenyl)-5-(3,8-dimethyl-[1,2,4]triazolo[4,3-a]pyridin-6-yl)-3-methyl-1-(1-methyl-1H-pyrazol-5-yl)-4,5-dihydropyrrolo[3,4-c]pyrazol-6(1H)-one]	15	> 10	0.115	
Cc1cc(N2C(=O)c3nn(C4CNC4)c(C)c3C2c2ccc(Cl)cc2)cn2c(C)nnc12 (stereo not shown) [Example 152, 2-(azetidin-3-yl)-4-(4-chlorophenyl)-5-(3,8-dimethyl-[1,2,4]triazolo[4,3-a]pyridin-6-yl)-3-methyl-4,5-dihydropyrrolo[3,4-c]pyrazol-6(2H)-one]	78	> 10	4	
Cc1cc(N2C(=O)c3nn(C(=O)N(C)C)c(C)c3C2c2ccc(Cl)cc2)cn(C)c1=O (stereo not shown) [Example 141, 4-(4-chlorophenyl)-5-(1,5-dimethyl-6-oxo-1,6-dihydropyridin-3-yl)-N,N,3-trimethyl-6-oxo-5,6-dihydropyrrolo[3,4-c]pyrazole-2(4H)-carboxamide]	170	> 10	0.527	
COc1ncc(-n2nc(C)c3c2C(=O)N(c2cc(C)c(=O)n(C)c2)C3c2ccc(Cl)cc2)c(OC)n1 (racemic) [Example 52, 4-(4-chlorophenyl)-1-(2,4-dimethoxypyrimidin-5-yl)-5-(1,5-dimethyl-6-oxo-1,6-dihydropyridin-3-yl)-3-methyl-4,5-dihydropyrrolo[3,4-c]pyrazol-6(1H)-one]	87			>10
CNC(=O)n1nc(C)c2c1C(=O)N(c1cc(C)c3nnc(C)n3c1)C2c1ccc(Cl)cc1 (stereo not shown) [Example 145, 4-(4-chlorophenyl)-5-(3,8-dimethyl-[1,2,4]triazolo[4,3-a]pyridin-6-yl)-N,3-dimethyl-6-oxo-5,6-dihydropyrrolo[3,4-c]pyrazole-1(4H)-carboxamide]	140	> 10	0.335	
COc1ncc(-n2nc3c(c2C)C(c2ccc(Cl)cc2)N(c2cc(Cl)c(=O)n(C)c2)C3=O)c(OC)n1 (stereo not shown) [Example 55, 5-(5-chloro-1-methyl-6-oxo-1,6-dihydropyridin-3-yl)-4-(4-chlorophenyl)-2-(2,4-dimethoxypyrimidin-5-yl)-3-methyl-4,5-dihydropyrrolo[3,4-c]pyrazol-6(2H)-one]	150	> 10	0.364	
COc1ncccc1-n1nc(C)c2c1C(=O)N(c1cc(C)c3nnc(C)n3c1)C2c1ccc(Cl)cc1 (stereo not shown) [Example 101, 4-(4-chlorophenyl)-5-(3,8-dimethyl-[1,2,4]triazolo[4,3-a]pyridin-6-yl)-1-(2-methoxypyridin-3-yl)-3-methyl-4,5-dihydropyrrolo[3,4-c]pyrazol-6(1H)-one]	34	> 10	0.102	
Cc1nn(-c2ccnn2C)c2c1C(c1ccc(Cl)cc1)N(c1cc(C)c(=O)n(C)c1)C2=O (racemic) [Example 74, 4-(4-chlorophenyl)-5-(1,5-dimethyl-6-oxo-1,6-dihydropyridin-3-yl)-3-methyl-1-(1-methyl-1H-pyrazol-5-yl)-4,5-dihydropyrrolo[3,4-c]pyrazol-6(1H)-one]	67			>10
